IL-1β production data for one molecule are collected here from US10624917B2, “Compositions and methods useful for treating or preventing liver diseases or disorders, and promoting weight loss” (YALE UNIVERSITY, priority 2014, dated 2020).

Structures are written as SMILES.

Assay [1] relates to IL-1β production in bone marrow derived macrophages. In words: IL-1β secretion by LPS/ATP-stimulated bone marrow derived macrophages. Conditions: LPS and ATP. It counts as cell-based, mouse. On the procedure: FIGS. 6A-6B illustrate the finding that bone marrow macrophages and liver Kupffer cells increase IL-1β in response to adenosine signaling. FIG. 6A: Murine bone marrow derived macrophages (BMDM) were primed with LPS for 16 hours, treated with NECA (10 μM) for 1 hour, and then pulsed with ATP. FIG. 6b: Primary murine liver Kupffer cells were primed with LPS for 16 hours, treated with NECA (10 μM) for 1 hour, and then pulsed with ATP. IL-1β secretion was measured in supernatants 5 hours after pulsing with ATP. Data are expressed as the mean±SD from at least three independent experiments. *p<0.05 determined by Student's t-test.
C57BL/6 mice were purchased from the National Cancer Institute. ASC−/−, Caspase-1−/−, Nlrp3−/− and P2xr7−/− mice have been described (Rock et al., 2010, Annu Rev Immunol. 28:321-42). A2ora2a flox/flox mice and LysMcre mice were purchased from Jackson Laboratories. HIF-1a flox/flox mice were kindly provided by Dr. Ruslan M Medzhitov (Yale University). 7- to 12-week-old males with a variety of genetic manipulations were used in most experiments. […]
Primed PECs were both pulsed for 20 min with 5 mM ATP or 10 μM nigericin, and left untreated until culture supernatants were collected. Secretion of IL-1β was determined by enzyme-linked immunoabsorbent assay (ELISA; R&D Systems).

Assay [2] deals with IL-1β production in murine peritoneal macrophages (PECs). Description: IL-1β secretion (ELISA) by primed, ATP-pulsed peritoneal macrophages (PECs). It is filed as cell-based, mouse. Conditions: LPS and monosodium urate (MSU) crystals. (In an ELISA, binding on a coated surface is turned into a signal by an enzyme label.)

For `CCNC(=O)[C@H]1O[C@@H](n2cnc3c(N)ncnc32)[C@H](O)[C@@H]1O` [NECA, 5′-(N-ethylcarboxamido) adenosine], the IL-1β production entry is recorded as “significantly increased” in assay [1] and “increased” in assay [2].
